# Several values for one entry are separate records, joined by “and”; a condition that tells them apart may be missing. Identical values can stand only once. Like-named read-outs stand apart in the source and are kept apart here.
# Assays:
# [1] = target: T1, human butyrylcholinesterase (hBChE) (Homo sapiens, UniProt P06276); assay: In vitro cholinesterase inhibition, Ellman's method (hBChE); format: biochemical
# T1 construct: purchased Sigma-Aldrich
# Method: (§1) Stock solutions (0.01 M) of the compounds were dissolved in H2O. The inhibitory activity of compounds against hAChE and hBChE was measured using Ellman’s method. Enzyme-catalyzed hydrolysis was carried out in 0.1 M PBS (pH = 8.0) containing 0.1 nM hAChE or hBChE, 0.1 mM 5,5′-dithiobis-(2-nitrobenzoic acid) and 1mM acetylthiocholine or butyrylthiocholine as substrates. The tested compounds were incubated with the enzyme for 5 min prior to the addition of the substrate. Analyses were performed at 298 K using a Shimadzu UV-1800 spectrophotometer (Shimadzu Co., Kyoto, Japan) at 412 nm. The substrate hydrolysis rate was measured within 2 min. A sample without inhibitor was used as a control (100% cholinesterase activity). A sample without substrate was used as a blank. The experiments were conducted in triplicate. The percentage of enzyme inhibition was determined using OriginPro 8.5 software (OriginLab Corporation, Northampton, MA, USA) by plotting a percentage of the inhibition versus compound concentration. IC50 values (inhibitor concentration required to inhibit enzyme activity by 50%) were determined by the Hill equation: E/Emax=[I]^n/IC50n+[I]^n, where E is enzyme activity in the presence of the compound, and [I] is the compound concentration.
# [2] = system: methicillin-resistant S. aureus MRSA-1 (resistant to fluoroquinolones and beta-lactams); assay: Antimicrobial activity (MRSA-1); format: cell-based
# Method: (§2) The antimicrobial activity of the compounds was tested on Gram-positive Staphylococcus aureus ATCC 6538P FDA 209P (Sa), Bacillus cereus ATCC 10702 NCTC 8035 (Bc), Enterococcus faecalis ATCC 29212 (Ef), and Gram-negative bacteria Escherichia coli ATCC 25922 (Ec), Pseudomonas aeruginosa ATCC 9027 (Pa), including methicillin-resistant strains of S. aureus MRSA-1 (resistant to fluoroquinolones and beta-lactams) and MRSA-2 (resistant to beta-lactams). Antifungal activity was studied against Candida albicans ATCC 10231 (Ca), Trichophyton mentagrophytes var. gypseum 1773 (Tm), and Aspergillus niger BKMF-1119 (An). A more detailed description of the experiment is published in [21].
# [3] = Tensiometry (Du Nouy ring), surface tension isotherms; format: physicochemical; conditions: for Amin (surface area per surfactant molecule) / Гmax∙10^6 (maximum surface excess) / ∆Gmic (free energy of micellization) / cmctens: 298 K; for calculated adsorption layer thickness: air/water interface; for cmctens: tensiometry
# Method: The surface tension isotherms of the micellar solutions were determined using the Du Nouy platinum ring detachment method on a K6 tensiometer (KRŰSS GmbH, Hamburg, Germany). For the experiment, surfactant solutions with a volume of 10 mL were prepared. The measurements were carried out strictly at 298 K in glass beakers, the diameter of which exceeded the diameter of the platinum ring. Surface tension measurements were carried out until stable values were obtained. After each measurement, the ring was degreased in ethanol and thoroughly dried. The cmc of the micellar solutions was determined from the breakpoint on the isotherm of surface tension versus surfactant concentration. The thermodynamic parameters of adsorption and micellization were calculated for all systems based on the obtained tensiometric curves.
# [4] = system: Candida albicans ATCC 10231; assay: Antifungal activity (Ca); format: cell-based
# Method: as §2
# [5] = system: Escherichia coli ATCC 25922; assay: Antimicrobial activity (Ec); format: cell-based
# Method: as §2
# [6] = system: Enterococcus faecalis ATCC 29212; assay: Antimicrobial activity (Ef); format: cell-based
# Method: as §2
# Pyrene fluorimetry = format: physicochemical; conditions: 298 K
# Method: To determine cmc by fluorimetry, a hydrophobic probe pyrene was added to a series of surfactant solutions at a concentration of 1 μM. The solutions were kept for 30–40 min for complete solubilization of the probe. The fluorescent emission spectra of pyrene were recorded on an F-7100 fluorimeter (Hitachi, Tokyo, Japan) using 10 × 4 mm quartz cuvette (Hellma Analytics, Müllheim, Germany) with the following settings: λex = 335 nm, λem = 350–600 nm, and scanning speed = 1200 nm/min. The cmc was calculated from the dependence of the pyrene polarity index (the ratio of the intensities of the first (373 nm) and third (383 nm) peaks) on the surfactant concentration.
# [7] = target: T2, human acetylcholinesterase (hAChE) (Homo sapiens, UniProt P22303); assay: biochemical; conditions: for SIhBChE/hAChE (selectivity index): IC50 hBChE / IC50 hAChE
# T2 construct: purchased Sigma-Aldrich
# Method: as §1
# Conductometry = format: physicochemical; conditions: 298 K
# Method: The electrical conductivity of the micellar solutions was determined on an InoLab Cond 7110 conductometer (WTW, Weilheim, Germany). For the experiment, surfactant solutions with a volume of 10 mL were prepared. The electrical conductivity of all solutions was recorded at 298 K, and the electrode was washed with purified water after each measurement. The cmc was determined from the breakpoint of the dependence of electrical conductivity on the concentration of surfactants.
# [8] = system: Trichophyton mentagrophytes var. gypseum 1773; assay: Antifungal activity (Tm); format: cell-based
# Method: as §2
# [9] = Indomethacin solubilization, spectrophotometry; format: physicochemical; conditions: 298 K
# Method: (§3) The cmc and the solubilizing capacity (S) of surfactants were determined using the spectral azo dye OOT and the non-steroidal anti-inflammatory drug IND. To obtain a saturated solution, an excess of OOT and IND was added to 2 mL of a surfactant solution, stirred, and kept for 48 and 24 h, respectively. After that, the solutions were filtered using Millex® Syringe Filters (Millipore, Burlington, MA, USA) with a pore size of 450 nm, and the optical density was measured. The absorption spectra were recorded on a Specord 250 Plus spectrophotometer (Analytik Jena AG, Jena, Germany). Quartz cells with a thickness of 1 and 0.5 cm (Hellma Analytics, Müllheim, Germany) were used for measurements.
# (§4) The solubilizing capacity (S) was determined using the following formula:S = b/ε, where b is D/l = f (Csurf) dependency slope (above cmc), ε is the extinction coefficient (17,400 L/mol∙cm for OOT, and the extinction coefficients of IND are determined in GS solutions and presented in Figure S10).
# [10] = system: Aspergillus niger BKMF-1119; assay: Antifungal activity (An); format: cell-based
# Method: as §2
# [11] = Orange OT solubilization, spectrophotometry (Schott method for Nagg); format: physicochemical; conditions: for cmc, Spectrophotometry: OOT; for Nagg (aggregation number): Schott approach, OOT solubilization
# Method: as §3, §4
# The OOT solubilization method (Schott method) was used to calculate the micelle Nagg. The Nagg values were calculated for each point on the curve of dependence of the OOT-reduced optical density on the surfactant concentration above the cmc according to the presented formula:[…], where ε is the extinction coefficient of OOT, Csurf is the surfactant concentration above cmc, and D is the optical density.
# [12] = system: Staphylococcus aureus ATCC 6538P FDA 209P; assay: Antimicrobial activity (Sa); format: cell-based
# Method: as §2
# [13] = system: Bacillus cereus ATCC 10702 NCTC 8035; assay: Antimicrobial activity (Bc); format: cell-based
# Method: as §2
# [14] = system: methicillin-resistant S. aureus MRSA-2 (resistant to beta-lactams); assay: Antimicrobial activity (MRSA-2); format: cell-based
# Method: as §2
# [15] = system: Pseudomonas aeruginosa ATCC 9027; assay: Antimicrobial activity (Pa); format: cell-based
# Method: as §2
# [16] = Electrode potential measurement with Br− selective electrode (potentiometry); format: physicochemical; conditions: 298 K
# Method: The electrode potential measurements were performed for the Br^− counterion using the I-160MI laboratory ionomer (JSC Scientific and Production Association of the Measuring Equipment, Moscow, Russia). Br^− selective electrode (ELIS-131Br) and a reference electrode (ESr-10101) were used for measurement of the electromotive force (ΔE) of aqueous solution of surfactants (the concentration from 0.02 to 0.5 mM for 12-12-12(Et); from 0.002 to 0.05 mM for 14-12-14(Et)). To calibrate the ionomer, a series of KBr solutions were prepared in the concentration range of 0.1 mM to 100 mM.
# β = 0.5(2Ct − CBr^−)/(Ct − cmc).
# [17] = alkyltrimethylammonium bromides; cited from earlier work
# T2 sequence (P22303 32-614): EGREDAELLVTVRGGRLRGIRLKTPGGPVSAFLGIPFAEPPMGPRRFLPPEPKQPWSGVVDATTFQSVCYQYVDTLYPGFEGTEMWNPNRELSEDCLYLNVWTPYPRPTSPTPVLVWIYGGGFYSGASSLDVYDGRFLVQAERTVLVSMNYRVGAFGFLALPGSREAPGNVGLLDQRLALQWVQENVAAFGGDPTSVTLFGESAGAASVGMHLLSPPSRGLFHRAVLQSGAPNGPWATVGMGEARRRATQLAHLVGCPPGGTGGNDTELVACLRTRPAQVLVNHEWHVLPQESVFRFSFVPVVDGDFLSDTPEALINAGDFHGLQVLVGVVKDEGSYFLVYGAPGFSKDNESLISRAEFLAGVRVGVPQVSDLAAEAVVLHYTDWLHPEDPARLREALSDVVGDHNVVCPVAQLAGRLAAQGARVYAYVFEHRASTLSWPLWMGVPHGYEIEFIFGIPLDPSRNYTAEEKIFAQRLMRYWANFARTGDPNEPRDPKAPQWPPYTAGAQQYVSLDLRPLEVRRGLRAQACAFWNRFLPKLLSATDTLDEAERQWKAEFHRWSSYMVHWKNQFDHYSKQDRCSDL
# T1 sequence (P06276 29-602): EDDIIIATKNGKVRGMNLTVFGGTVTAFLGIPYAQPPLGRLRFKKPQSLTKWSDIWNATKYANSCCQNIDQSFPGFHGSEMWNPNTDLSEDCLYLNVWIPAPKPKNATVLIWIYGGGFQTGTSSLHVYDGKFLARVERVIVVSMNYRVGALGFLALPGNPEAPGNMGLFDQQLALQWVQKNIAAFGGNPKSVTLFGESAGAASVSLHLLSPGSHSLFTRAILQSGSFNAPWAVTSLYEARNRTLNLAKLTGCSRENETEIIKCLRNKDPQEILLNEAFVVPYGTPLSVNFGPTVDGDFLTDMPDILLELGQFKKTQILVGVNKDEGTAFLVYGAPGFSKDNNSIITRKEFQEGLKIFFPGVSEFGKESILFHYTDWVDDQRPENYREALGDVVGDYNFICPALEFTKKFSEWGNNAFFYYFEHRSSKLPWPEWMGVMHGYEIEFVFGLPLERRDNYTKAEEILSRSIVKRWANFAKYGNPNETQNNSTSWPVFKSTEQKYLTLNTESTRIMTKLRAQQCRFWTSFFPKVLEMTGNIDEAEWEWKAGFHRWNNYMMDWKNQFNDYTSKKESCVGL
smiles,measurement,setting,value
CCCCCCCCCC[N+](C)(CCCCCCCCCCCC[N+](C)(CCCCCCCCCC)CCOC(=O)NCC)CCOC(=O)NCC (centres unmarked) [10-12-10(Et)],IC50,[1],19 ± 5 nM
same,"MBC, MRSA-1",[2],1.9 ± 0.1 µg/mL
same,"MIC, MRSA-1",[2],0.5 µg/mL and 0.5 ± 0.03 µg/mL
same,Amin (surface area per surfactant molecule),[3],2.34 nm^2
same,Гmax∙10^6 (maximum surface excess),[3],0.71 mol∙m^−2
same,∆Gmic (free energy of micellization),[3],-6.09 kcal/mol
same,calculated adsorption layer thickness,[3],0.7 nm
same,cmctens,[3],1 mM and 1 ± 0.03 mM
same,"MFC, Ca",[4],15.6 ± 1.2 µg/mL
same,"MIC, Ca",[4],0.9 ± 0.07 µg/mL
same,"MBC, Ec",[5],0.5 ± 0.03 µg/mL
same,"MIC, Ec",[5],0.5 ± 0.03 µg/mL
same,"MBC, Ef",[6],0.5 ± 0.04 µg/mL
same,"MIC, Ef",[6],0.5 ± 0.03 µg/mL
same,"cmc, Fluorimetry",Pyrene fluorimetry,0.9 mM and 0.9 ± 0.03 mM
same,IC50,[7],43.1 ± 0.9 nM
same,SIhBChE/hAChE (selectivity index),[7],0.44
same,cmccond,Conductometry,1.5 mM and 1.5 ± 0.04 mM
same,βcond (degree of counterion binding),Conductometry,0.41
same,"MFC, Tm",[8],15.6 ± 1.3 µg/mL
same,"MIC, Tm",[8],0.9 ± 0.07 µg/mL
same,"S (solubilizing capacity), IND",[9],0.13 molprobe/molGS
same,"MFC, An",[10],>250 µg/mL
same,"MIC, An",[10],250 ± 19 µg/mL
same,"S (solubilizing capacity), OOT",[11],0.021 molOOT/molGS
same,"S (solubilizing capacity), OOT",[11]; 298 K,0.021 molprobe/molGS
same,"cmc, Spectrophotometry",[11]; 298 K,1.5 ± 0.1 mM
same,Nagg (aggregation number),[11]; 298 K,50
same,"MBC, Sa",[12],0.5 ± 0.04 µg/mL
same,"MIC, Sa",[12],0.5 ± 0.03 µg/mL
same,"MBC, Bc",[13],0.5 ± 0.03 µg/mL
same,"MIC, Bc",[13],0.5 ± 0.04 µg/mL
same,"MBC, MRSA-2",[14],3.9 ± 0.3 µg/mL
same,"MIC, MRSA-2",[14],0.5 µg/mL and 0.5 ± 0.03 µg/mL
same,"MBC, Pa",[15],3.9 ± 0.3 µg/mL
same,"MIC, Pa",[15],1.9 ± 0.1 µg/mL
CCCCCCCCCCCCCC[N+](C)(CCCCCCCCCCCC[N+](C)(CCCCCCCCCCCCCC)CCOC(=O)NCC)CCOC(=O)NCC (centres unmarked) [14-12-14(Et)],IC50,[1],1440 ± 520 nM
same,MBC,"[2]; Staphylococcus aureus, MRSA, read-out: MBC, MRSA-1",7.8 ± 0.6 µg/mL
same,MIC,"[2]; Staphylococcus aureus, MRSA, read-out: MIC, MRSA-1",7.8 ± 0.6 µg/mL
same,Amin (surface area per surfactant molecule),[3],0.52 nm^2
same,Гmax∙10^6 (maximum surface excess),[3],3.21 mol∙m^−2
same,∆Gmic (free energy of micellization),[3],-8.84 kcal/mol
same,calculated adsorption layer thickness,[3],3.3 nm
same,cmctens,[3],0.013 mM and 0.013 ± 0.0007 mM
same,MFC,"[4]; Candida albicans, ATCC10231, read-out: MFC, Ca",250 ± 21 µg/mL
same,MIC,"[4]; Candida albicans, ATCC10231, read-out: MIC, Ca",250 ± 19 µg/mL
same,MBC,"[5]; Escherichia coli, ATCC25922, read-out: MBC, Ec",31.3 ± 2.6 µg/mL
same,MIC,"[5]; Escherichia coli, ATCC25922, read-out: MIC, Ec",31.3 ± 2.5 µg/mL
same,MBC,"[6]; Enterococcus faecalis, ATCC29212, read-out: MBC, Ef",3.9 ± 0.2 µg/mL
same,MIC,"[6]; Enterococcus faecalis, ATCC29212, read-out: MIC, Ef",3.9 ± 0.3 µg/mL
same,"cmc, Fluorimetry",Pyrene fluorimetry,0.014 mM and 0.014 ± 0.0004 mM
same,IC50,[7],11 ± 0.5 nM
same,SIhBChE/hAChE (selectivity index),[7],131
same,cmccond,Conductometry,0.05 mM and 0.05 ± 0.0013 mM
same,βcond (degree of counterion binding),Conductometry,0.44
same,MFC,"[8]; Trichophyton mentagrophytes, read-out: MFC, Tm",250 ± 18 µg/mL
same,MIC,"[8]; Trichophyton mentagrophytes, read-out: MIC, Tm",250 ± 19 µg/mL
same,"S (solubilizing capacity), IND",[9],1.51 molprobe/molGS
same,MFC,"[10]; Aspergillus niger, BKMF1119, read-out: MFC, An",> 250 µg/mL
same,MIC,"[10]; Aspergillus niger, BKMF1119, read-out: MIC, An",> 250 µg/mL
same,βpot (degree of counterion binding),[16],0.3
same,"S (solubilizing capacity), OOT",[11],0.047 molOOT/molGS
same,"S (solubilizing capacity), OOT",[11]; 298 K,0.047 molprobe/molGS
same,"cmc, Spectrophotometry",[11]; 298 K,0.045 ± 0.003 mM
same,Nagg (aggregation number),[11]; 298 K,16
same,MBC,"[12]; Staphylococcus aureus, read-out: MBC, Sa",3.9 ± 0.3 µg/mL
same,MIC,"[12]; Staphylococcus aureus, read-out: MIC, Sa",3.9 ± 0.2 µg/mL
same,MBC,"[13]; Bacillus cereus, read-out: MBC, Bc",125 ± 9 µg/mL
same,MIC,"[13]; Bacillus cereus, read-out: MIC, Bc",125 ± 10 µg/mL
same,MBC,"[14]; Staphylococcus aureus, MRSA, read-out: MBC, MRSA-2",7.8 ± 0.7 µg/mL
same,MIC,"[14]; Staphylococcus aureus, MRSA, read-out: MIC, MRSA-2",7.8 ± 0.7 µg/mL
same,MBC,"[15]; Pseudomonas aeruginosa, ATCC9027, read-out: MBC, Pa",125 ± 10 µg/mL
same,MIC,"[15]; Pseudomonas aeruginosa, ATCC9027, read-out: MIC, Pa",125 ± 10 µg/mL
CCCCCCCCCCCC[N+](C)(C)C.[Br-] [C12TAB],Nagg,[17],55

# — PMC10419252, “Synthesis, Properties, and Biomedical Application of Dicationic Gemini Surfactants with Dodecane Spacer and Carbamate Fragments” (International Journal of Molecular Sciences, 2023)
